Measurements taken from ChEMBL document CHEMBL1201862, “PubChem BioAssay data set” (2004).
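Dose response: 5 concentrations. Exposure: 48 h. Format: 96-well plates. Endpoint: linear interpolation; highest concentration if not reached. GI50 marks 50% less growth.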 Calls of active or inactive are those of the source. Cut-off read from the data, not from the text of the source: active = GI50 up to about 1.1 µM and inactive = higher.

What was measured:
Test in all cases: DTP human tumour cell line panel, 48 h
OVCAR-5 = tested on: OVCAR-5
NCI-H226 = tested on: NCI-H226
UACC-257 = tested on: UACC-257
SF-295 = tested on: SF-295
ACHN = tested on: ACHN
DLD-1 = tested on: DLD-1
HCC 2998 = tested on: HCC 2998
HOP-92 = tested on: HOP-92
SW-620 = tested on: SW-620
NCI-H23 = tested on: NCI-H23
OVCAR-4 = tested on: OVCAR-4
M14 = tested on: M14
HOP-62 = tested on: HOP-62
786-0 = tested on: 786-0
Malme-3M = tested on: Malme-3M
SNB-19 = tested on: SNB-19
CAKI-1 = tested on: CAKI-1
UACC-62 = tested on: UACC-62
XF498 = tested on: XF498
SNB-75 = tested on: SNB-75
NCI-H460 = tested on: NCI-H460
A549 = tested on: A549
DMS-114 = tested on: DMS-114
LOX IMVI = tested on: LOX IMVI
SF-268 = tested on: SF-268
IGROV-1 = tested on: IGROV-1
EKVX = tested on: EKVX
SNB-78 = tested on: SNB-78
U-251 = tested on: U-251
UO-31 = tested on: UO-31
A498 = tested on: A498
OVCAR-8 = tested on: OVCAR-8
SK-OV-3 = tested on: SK-OV-3
COLO 205 = tested on: COLO 205
KM-20L2 = tested on: KM-20L2
HCT-116 = tested on: HCT-116
HOP-18 = tested on: HOP-18
LXFL 529 = tested on: LXFL 529
SK-MEL-2 = tested on: SK-MEL-2
KM12 = tested on: KM12
M19-MEL = tested on: M19-MEL
RPMI-8226 = tested on: RPMI-8226
HT-29 = tested on: HT-29
SK-MEL-28 = tested on: SK-MEL-28
SN12C = tested on: SN12C
TK-10 = tested on: TK-10
HCT-15 = tested on: HCT-15
RXF 393 = tested on: RXF 393
SF-539 = tested on: SF-539
OVCAR-3 = tested on: OVCAR-3
DMS-273 = tested on: DMS-273
MOLT-4 = tested on: MOLT-4
HL-60 = tested on: HL-60
SR = tested on: SR
K562 = tested on: K562
CCRF-CEM = tested on: CCRF-CEM
SK-MEL-5 = tested on: SK-MEL-5
NCI-H522 = tested on: NCI-H522

CC(C(=O)c1ccccc1)C1(O)C(=O)Nc2ccc(Cl)cc21 (stereo not given)
GI50 (OVCAR-5): > 100 µM (inactive)
GI50 (NCI-H226): > 100 µM (inactive)
GI50 (UACC-257): 31.6 µM (inactive)
GI50 (SF-295): > 100 µM (inactive)
GI50 (ACHN): > 100 µM (inactive)
GI50 (DLD-1): > 100 µM (inactive)
GI50 (HCC 2998): > 100 µM (inactive)
GI50 (HOP-92): > 100 µM (inactive)
GI50 (SW-620): 49.1 µM (inactive)
GI50 (NCI-H23): > 100 µM (inactive)
GI50 (OVCAR-4): 19.2 µM (inactive)
GI50 (M14): > 100 µM (inactive)
GI50 (HOP-62): > 100 µM (inactive)
GI50 (786-0): 40.3 µM (inactive)
GI50 (Malme-3M): > 100 µM (inactive)
GI50 (SNB-19): > 100 µM (inactive)
GI50 (CAKI-1): > 100 µM (inactive)
GI50 (UACC-62): 42.2 µM (inactive)
GI50 (XF498): > 100 µM (inactive)
GI50 (SNB-75): > 100 µM (inactive)
GI50 (NCI-H460): > 100 µM (inactive)
GI50 (A549): > 100 µM (inactive)
GI50 (DMS-114): 56.8 µM (inactive)
GI50 (LOX IMVI): 50.6 µM (inactive)
GI50 (SF-268): > 100 µM (inactive)
GI50 (IGROV-1): > 100 µM (inactive)
GI50 (EKVX): > 100 µM (inactive)
GI50 (SNB-78): > 100 µM (inactive)
GI50 (U-251): 53.8 µM (inactive)
GI50 (UO-31): 0.469 µM (active)
GI50 (A498): > 100 µM (inactive)
GI50 (OVCAR-8): > 100 µM (inactive)
GI50 (SK-OV-3): > 100 µM (inactive)
GI50 (COLO 205): > 100 µM (inactive)
GI50 (KM-20L2): > 100 µM (inactive)
GI50 (HCT-116): > 100 µM (inactive)
GI50 (HOP-18): 12.8 µM (inactive)
GI50 (LXFL 529): 72.3 µM (inactive)
GI50 (SK-MEL-2): > 100 µM (inactive)
GI50 (KM12): > 100 µM (inactive)
GI50 (M19-MEL): 16.7 µM (inactive)
GI50 (RPMI-8226): 48 µM (inactive)
GI50 (HT-29): 75.7 µM (inactive)
GI50 (SK-MEL-28): > 100 µM (inactive)
GI50 (SN12C): > 100 µM (inactive)
GI50 (TK-10): > 100 µM (inactive)
GI50 (HCT-15): 81.8 µM
GI50 (RXF 393): > 100 µM (inactive)
GI50 (SF-539): > 100 µM (inactive)
GI50 (OVCAR-3): 37.4 µM (inactive)

CN(CCN(C)C(=O)CCOS(C)(=O)=O)C(=O)CCOS(C)(=O)=O
GI50 (OVCAR-5): > 100 µM (inactive)
GI50 (NCI-H226): > 100 µM (inactive)
GI50 (UACC-257): > 100 µM (inactive)
GI50 (SF-295): > 100 µM (inactive)
GI50 (ACHN): > 100 µM (inactive)
GI50 (DLD-1): > 100 µM (inactive)
GI50 (HCC 2998): > 100 µM (inactive)
GI50 (HOP-92): > 100 µM (inactive)
GI50 (SW-620): > 100 µM (inactive)
GI50 (NCI-H23): > 100 µM (inactive)
GI50 (OVCAR-4): > 100 µM (inactive)
GI50 (M14): > 100 µM (inactive)
GI50 (HOP-62): 59 µM (inactive)
GI50 (786-0): > 100 µM (inactive)
GI50 (Malme-3M): > 100 µM (inactive)
GI50 (SNB-19): > 100 µM (inactive)
GI50 (CAKI-1): > 100 µM (inactive)
GI50 (DMS-273): 74 µM (inactive)
GI50 (UACC-62): 43.5 µM (inactive)
GI50 (XF498): > 100 µM (inactive)
GI50 (SNB-75): > 100 µM (inactive)
GI50 (NCI-H460): 19.5 µM (inactive)
GI50 (A549): > 100 µM (inactive)
GI50 (DMS-114): > 100 µM (inactive)
GI50 (LOX IMVI): > 100 µM (inactive)
GI50 (SF-268): 77.8 µM (inactive)
GI50 (IGROV-1): > 100 µM (inactive)
GI50 (EKVX): > 100 µM (inactive)
GI50 (SNB-78): > 100 µM (inactive)
GI50 (U-251): > 100 µM (inactive)
GI50 (MOLT-4): 41 µM (inactive)
GI50 (HL-60): 30.9 µM (inactive)
GI50 (A498): > 100 µM (inactive)
GI50 (OVCAR-8): > 100 µM (inactive)
GI50 (SK-OV-3): > 100 µM (inactive)
GI50 (COLO 205): > 100 µM (inactive)
GI50 (KM-20L2): > 100 µM (inactive)
GI50 (SR): 15.6 µM (inactive)
GI50 (K562): > 100 µM (inactive)
GI50 (HCT-116): > 100 µM (inactive)
GI50 (HOP-18): > 100 µM (inactive)
GI50 (LXFL 529): > 100 µM (inactive)
GI50 (CCRF-CEM): 24.3 µM (inactive)
GI50 (SK-MEL-2): > 100 µM (inactive)
GI50 (KM12): > 100 µM (inactive)
GI50 (RPMI-8226): > 100 µM (inactive)
GI50 (HT-29): > 100 µM (inactive)
GI50 (SK-MEL-28): > 100 µM (inactive)
GI50 (SN12C): > 100 µM (inactive)
GI50 (SK-MEL-5): > 100 µM (inactive)
GI50 (NCI-H522): > 100 µM (inactive)
GI50 (TK-10): > 100 µM (inactive)
GI50 (HCT-15): > 100 µM
GI50 (SF-539): 44.1 µM (inactive)
GI50 (OVCAR-3): > 100 µM (inactive)
